Reference: patent publication US12583868B2, “JAK inhibitors and methods for synthesizing and using thereof” (GALDERMA HOLDING SA, priority 2020, dated 2026)
Read-outs that look alike come from different tables or passages of the source.

What was measured:
[1] = test system: IL6; experiment: hWB assay, IL6; format: cell-based, h
[2] = Protein binding analysis (RED), human plasma; format: in vitro ADME; conditions: 5 μM
Experimental: (§1) The protein binding was assessed in plasma of Human, male balb-c mice, male Wistar Han rat, male Göttingen minipig by rapid equilibrium dialysis (RED) devices. After the plasma and buffer phosphate 50 mM pH7.4 were equilibrated at 37° C., the compound was added to plasma to reach a final concentration of 5 μM. An aliquot of plasma was withdrawn immediately. Equilibration under mild agitation was continued for 4 h. The plasma and buffer were sampled and samples were quenched with 4 volumes of acetonitrile and centrifuged. Supernatant was quantified in HPLC/MS/MS to calculate the recovery and the percentage of compound dissolved in the buffer (unbound) and bound to plasma proteins.

[3] = test system: 44 targets; format: binding
Experimental: An in vitro pharmacology assay was conducted to assess the capability of the compounds to interact with different pharmacological targets when tested at 10 μM in different binding and enzyme/uptake assays. The included targets are indicative of potential effects in major organs and drug-drug interactions.
Compound binding was calculated as a % inhibition of the binding of a radioactively labelled ligand specific for each target. […] […].

[4] = SF logD; format: physicochemical
[5] = Intrinsic clearance in hepatocytes, minipig; format: in vitro ADME, male Göttingen minipig; conditions: 2.5 μM
Experimental: (§2) The intrinsic clearance was assessed in cryopreserved Hepatocytes obtained by Human livers donors of mix gender pooled together, male balb-c mouse, male Wistar Han rats and male Göttingen minipig, by looking at the parent compound disappearance. The incubations were performed using a final concentration of viable cells of 1 million/ml (viability above 70%) and test item of 2.5 μM. Incubations were followed up to 2 h. Aliquotes were withdrawn at different time points and reaction quenched with acetonitrile. After centrifugation the supernatant was analyzed by HPLC/MS to quantify the remaining amount of parent in comparison with time 0. The clearance was calculated by fitting the log of the percentage remaining with Graphpad Prism ver.7.

[6] = In vivo pharmacokinetic analysis in minipig (iv); set-up: species or system male Göttingen minipigs; conditions: iv 1 mg/kg
Experimental: (§3) Three male Göttingen minipigs. Compound was administered intravenously to fed animals at a target dose of 1 mg/kg, dose volume 1 mL/kg, in DMSO: hydroxypropyl-p-cyclodextrin 20% in phosphate buffer 60 mM pH 7 (5:95). Blood samples were collected at various time points. Blood samples were then assayed using a method based upon protein precipitation with acetonitrile followed by LC/MS/MS analysis. Non-compartmental methods were used for pharmacokinetic analysis of blood concentration versus time data.

[7] = test system: IL-6 induced pSTAT3 in TF-1 cells; experiment: In vitro cellular pSTAT3 assay, IL-6 stimulated TF-1 cells; format: cell-based; conditions: Homo sapiens
Experimental: . The flasks were incubated overnight at 37° C., 5% CO2 then seeded in 96 well plates (TPP) at 150000 cells/well in 25 μL. Cells were treated with 5 IL/well of serially diluted compounds in DMSO (final DMSO concentration of 0.1%) and incubated for 30 min at 37° C. IL-6 (6 IL/well, 100 ng/ml as a final concentration in Opti-MEM, Thermofisher, PHC0066) was added to the cell plates and followed by a 30-min incubation at 37° C. Next, cells were lysed by adding 12 μl/well of 4× supplemented lysis buffer, incubated at 4° C. for 30 min under agitation. The samples were processed for the pSTAT3 detection as described by the manufacturer (MSD) with 25 μl of non-diluted cell lysates tested. Compounds were tested in simplicates over 10 three-step dilutions in order to determine their IC50 values.

[8] = test system: kinase panel (403); experiment: Kinase selectivity S35 / S1 at 10 μM; format: binding
[9] = test system: 3T3 murine fibroblasts; experiment: Phototoxicity (Neutral red uptake); format: cell-based; conditions: 3T3 fibroblasts, 7 J/cm2 UVA/UVB
Experimental: Phototoxicity was evaluated in 3T3 murine fibroblasts. Cells were incubated with different concentrations of test compounds. One plate was then exposed to a dose of 7 J/cm2 (UVA/UVB mimicking usual solar exposure) whereas the other plate was kept in the dark. The treatment medium was then replaced with culture medium and after 24 h cell viability was determined by Neutral red uptake. Concentration leading to 50% decrease of viability was calculated in the absence and in the presence of irradiation. The PIF (photo irritation factor) ratio was then calculated: […]).

[10] = Protein binding analysis (RED), minipig plasma; format: in vitro ADME; conditions: male, Göttingen, pH 7.4, read-out: minipig FU
Experimental: as §1

[11] = In vivo pharmacokinetic analysis in rat (iv); set-up: species or system male Wistar Han rat; conditions: iv 1 mg/kg
Experimental: as §3, with “One” for “Three”, “Wistar Han rat.” for “Göttingen minipigs.”, “animal” for “animals”, “volume: 2” for “volume 1”, “DMSO/hydroxypropyl-beta-cyclodextrin” for “DMSO: hydroxypropyl-p-cyclodextrin”, “data” for “data.”

[12] = Intrinsic clearance in hepatocytes, human; format: in vitro ADME; conditions: 2.5 μM
Experimental: as §2

[13] = pKa; format: physicochemical
[14] = molecular target: T1, hERG channel (Homo sapiens, UniProt Q12809); experiment: In vitro hERG channel whole cell patch clamp; format: cell-based; conditions: CHO-K1 cells expressing hERG
T1 construct: expressed in transfected cells; host or cells: CHO-K1
T1 sequence (Q12809 whole entry): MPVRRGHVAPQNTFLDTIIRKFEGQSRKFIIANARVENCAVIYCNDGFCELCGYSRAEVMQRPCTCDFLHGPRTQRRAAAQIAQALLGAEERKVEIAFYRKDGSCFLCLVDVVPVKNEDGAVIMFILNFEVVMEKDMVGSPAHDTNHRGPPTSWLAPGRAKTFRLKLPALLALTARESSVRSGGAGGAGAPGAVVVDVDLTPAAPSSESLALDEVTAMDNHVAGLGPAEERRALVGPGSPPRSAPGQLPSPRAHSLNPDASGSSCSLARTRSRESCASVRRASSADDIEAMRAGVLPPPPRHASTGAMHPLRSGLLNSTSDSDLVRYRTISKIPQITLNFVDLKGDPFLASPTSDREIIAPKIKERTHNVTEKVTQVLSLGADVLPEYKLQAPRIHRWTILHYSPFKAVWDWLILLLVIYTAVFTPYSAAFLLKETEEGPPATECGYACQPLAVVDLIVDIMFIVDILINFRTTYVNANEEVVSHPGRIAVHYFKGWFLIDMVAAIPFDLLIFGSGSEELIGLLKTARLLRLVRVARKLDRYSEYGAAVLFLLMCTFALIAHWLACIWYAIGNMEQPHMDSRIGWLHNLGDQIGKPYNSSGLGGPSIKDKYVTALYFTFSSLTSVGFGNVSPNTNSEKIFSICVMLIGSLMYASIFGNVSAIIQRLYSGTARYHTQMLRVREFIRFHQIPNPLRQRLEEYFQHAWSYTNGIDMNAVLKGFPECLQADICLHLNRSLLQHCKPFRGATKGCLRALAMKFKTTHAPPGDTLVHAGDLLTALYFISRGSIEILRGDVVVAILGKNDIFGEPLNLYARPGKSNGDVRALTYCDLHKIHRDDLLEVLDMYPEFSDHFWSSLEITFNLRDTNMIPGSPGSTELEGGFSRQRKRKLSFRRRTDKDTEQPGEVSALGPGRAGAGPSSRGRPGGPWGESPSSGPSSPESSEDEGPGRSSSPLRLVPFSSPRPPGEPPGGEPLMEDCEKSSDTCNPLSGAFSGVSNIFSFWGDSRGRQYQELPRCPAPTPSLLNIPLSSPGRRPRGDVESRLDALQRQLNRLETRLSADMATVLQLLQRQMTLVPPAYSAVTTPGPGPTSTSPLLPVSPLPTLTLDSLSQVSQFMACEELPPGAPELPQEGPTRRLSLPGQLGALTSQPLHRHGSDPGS
Experimental: Blockade of the delayed rectifier potassium current (IKr) encoded by hERG gene (human ether a go go-related gene) can lead to QT interval prolongation and is therefore investigated as part of the cardiac risk assessment. This channel is critical for the repolarisation of the cardiac membrane. The effect of the compounds on IKr was assessed by whole cell patch clamp in stably transfected CHO-K1 cells expressing hERG (Human Ether-a-go-go Related Gene) channel following superfusion at different concentrations up to 30 μM.

O=S(=O)(N[C@H]1C[C@@H](N2CCOc3cnc4[nH]ccc4c32)C1)C1CN(C2CC2)C1 [Compound E, 1-Cyclopropyl-N-((cis)-3-(2,3-dihydropyrrolo[3′,2′:5,6]pyrido[3,4-b][1,4]oxazin-1(7H)-yl)cyclobutyl)azetidine-3-sulfonamide]
IC50 [1]: 1600 nM
hFU [2]: 23%
Safety panel (Cerep): 44 targets % inh @10 microM Nb of targets > 50% inh [3]: 2/44
Safety panel (Cerep): targets > 50% inh ([3]; 10 μM): (H2 (antago)-alpha2A (antago))
logD [4]: 2.1
Intr. Clear. minipig heps [5]: 44 microL/min/10 6 cells
iv PK minipig: ER [6]: 171%
clearance ([6]; male, Göttingen, whole blood, read-out: iv PK minipig: Cl): 48 mL/min/kg
IC50 ([7]; TF-1, cellular assay IL6, read-out: Free IC50): 43 nM
IC50 ([7]; TF-1 cells, IL-6 100 ng/ml, read-out: Cellular Assay: IC50 IL6): 9.9 nM
Selectivity (S1): number of kinases out of panel [8]: 1/403
Phototox [9]: Neg/Neg
fraction unbound at 4 h, 5 μM [10]: 0.32
iv PK rat: ER [11]: 67%
clearance ([11]; male, Wistar Han, whole blood, read-out: iv PK rat: Cl): 52 mL/min/kg
Vd ([11]; male, Wistar Han, whole blood, read-out: iv PK rat: Vd): 1.8 L/kg
half-life ([11]; male, Wistar Han, whole blood, read-out: iv PK rat: t½ (converted)): 23.4 min
Intr. Clear. h heps [12]: 6.5 microL/min/10 6 cells
pKa [13]: 6.1
IC50 [14]: 15000 nM
